In patent US20230096443A1, “NOVEL NICOTINAMIDE DI-NUCLEOTIDE DERIVATIVES AND USE THEREOF” (NUVAMID SA, priority 2019, published 2023):

Tests used:
[1] = test system: CYP-induced visceral pain; experiment: Acute cyclophosphamide (CYP)-induced cystitis model, von Frey mechanical stimulation; type: in vivo, female Sprague-Dawley rats; conditions: 500 mg/kg p.o.
Experimental: The aim of the present study was to evaluate, the effects of oral administration of Nicotinamide Mono-Nucleoside (NMN), Pro-drug A (alpha-NMN) and Pro-drug B (compound I-A), compounds I-B and I-C at 500 mg/kg on visceral pain response in the acute cyclophosphamide (CYP)-induced cystitis model in female Sprague-Dawley rats.
Female Sprague-Dawley rats, 7 weeks at delivery
• NMN: 500 mg/kg • Pro-drug A: 500 mg/kg • Pro-drug B (compound I-A): 500 mg/kg • Compound I-B: 500 mg/kg • Compound I-C; 500 mg/kg • Vehicle: distilled water • Route of administration: per os (p.o.), 5 mL/kg • Frequency of administration: once at DO, 15 min prior CYP intraperitoneal (i.p.) injection.
=>lowered threshold=allodynia • Nociceptive score: % of the maximal response (total=9 for 3 pooled applications) for each filament

[2] = test system: doxorubicin-induced cardiotoxicity; experiment: Model of doxorubicin-induced cardiotoxicity; type: in vivo, male mice; conditions: 5 days after DOX 20 mg/kg; for survival rate: 180 mg/kg i.p. once daily; for end-systolic LV volume: vs DOX vehicle group; for heart weight: vs DOX vehicle mice
Experimental: The aim of the present study was to evaluate, the effects of i.p administration of Nicotinamide Mononucleotide (NMN), compound I-B and compound I-C at 180 mg/kg in the progression of a cardiotoxicity induced by doxorubicin.
76 male mice, 8-week-old at the arrival were obtained from Janvier Labs, Le Genest St Isle, 53941 St Berthevin, France. Each animal was identified with electronic chip. Each cage was numbered. Based on the animal number/cage and number of cages, the animals were assigned of unique number with the name of group and mice number.
The powder of NMN, compounds I-B and I-C (180 mg/kg) were dissolved in vehicle (the solution is used at room temperature for maximum 1 day). A fresh sample for each administration was prepared every day except the week-end (the solution is prepared on Saturday and is used on Saturday and Sunday).
Cardiotoxicity was induced by a single intraperitoneal injection of doxorubicin (DOX) at 20 mg/kg. Doxorubicin was prepared at 2 mg/mL and volume of administration was 10 mL/Kg.
At D0, mice were injected with DOX (20 mg/kg) by intraperitoneal route.
The treatment with NMN, compounds I-B and I-C was initiated from 5 days before DOX injection, once per day, from D-5 to DO.
Mice were i.p treated with NMN, compounds I-B and I-C 30 min before DOX injection.
Mice were i.p treated with NMN, compounds I-B and I-C for the duration of the experiment (D0 to D5) once per day. Last injection occurred 24 hours before sacrifice.
The bodyweight was assessed at inclusion and at D5.
The survival rate was recorded every day until the end of the experiment (D5).
Retro-orbital blood collection was performed at the inclusion and at 1 and 5 days after the […] with DOX to assess biomarker (LDH and creatinine).
Echocardiography (ECG) was performed 5 days after doxorubicin injection in anesthetized (isoflurane 1.5-2%) animals with non-invasive two-dimensional echocardiography (VF16-5 probe, Siemens, Acuson NX3 Elite). After removing hairs on the chest, numeric images of the heart were obtained in both parasternal long-axis and short axis views.
The following cardiac function were assessed during ECG: • Left ventricle (LV) end-systolic and end-diastolic inner diameter; • LV end-systolic and end-diastolic volume, • Fractionnal shortening; • Ejection fraction; • Heart Rate; and • Anterior and posterior wall thickness in Diastole and in systole.

SS RBCs = experiment: RBC sickling under hypoxia ex vivo (sickle cell disease mouse model); type: in vivo, Townes S/S mice; conditions: 1% O2 for 30 minutes ex vivo
Experimental: The aim of the present study was to evaluate, the effects of i.p. administration of Nicotinamide Mononucleotide (NMN), compound I-B and compound I-C at 185 mg/kg as modulator of red blood cell sickling and their potential role in therapy for sickle cell disease on a mouse model of SCD.
Townes S/S mice on a 129/B6 mixed genetic background.
The powder of NMN, compounds I-B and I-C (185 mg/kg) were dissolved in vehicle (the solution was used at room temperature for maximum 1 day). A fresh sample for each administration was prepared every day except the week-end (the solution is prepared on Saturday and is used on Saturday and Sunday).
In Townes S/S mice, mouse alpha- and beta-globin gene loci are deleted and replaced by human alpha- and beta-globins. When carrying two copies of the beta S allele, mice develop a human sickle cell disease phenotype with sickle-shaped red blood cells seen in blood smears.
Mice were i.p treated with NMN, compounds I-B and I-C during all the experiment (D0 to D15) once per day. Last injection occurred 24 hours before sacrifice.
Retro-orbital blood collection was performed at the inclusion D0 and at D5, D10 and D15 through facial vein bleeding.
Red blood cells collected were submitted to hypoxia (1% O2) for 30 minutes to induce sickling. Percentage of sickle cells was then assessed.
SS RBCs from treated mice were collected at D0, D5, D10 and D15 and were submitted to hypoxia for 30 minutes in a hypoxic chamber (1% O2). Percentage of sickling RBCs was then assessed for each time point with compounds NMN, I-B and I-C.

[3] = after 15 days treatment 185 mg/kg i.p. once daily

| Compound | nociceptive scores (CYP-induced visceral pain) vs vehicle ([1]; +2 h after CYP) | nociceptive scores (CYP-induced visceral pain) vs vehicle ([1]; +4 h after CYP) | nociceptive scores (CYP-induced visceral pain) vs vehicle ([1]; +6 h after CYP) | nociceptive threshold (CYP-induced allodynia) vs vehicle ([1]; +6 h after CYP) | survival rate [2] | ejection fraction ([2]; 180 mg/kg i.p.) [%] | fractional shortening ([2]; 180 mg/kg i.p.) | heart rate ([2]; 180 mg/kg i.p.) [bpm] | LV anterior and posterior wall thickness in systole ([2]; 180 mg/kg i.p., vs DOX vehicle) | body weight loss after doxorubicin administration ([2]; 180 mg/kg i.p., vs DOX vehicle) | end-systolic LV volume ([2]; 180 mg/kg i.p.) | heart weight ([2]; 180 mg/kg i.p.) | percentage of sickling cells (SS RBCs; D0 (start of treatment)) [%] | percentage of sickling cells (SS RBCs; [3]) | heart rate (change in words) ([2]; 180 mg/kg i.p., vs DOX vehicle) | nociceptive threshold (CYP-induced allodynia) vs vehicle ([1]; +2 h after CYP) | nociceptive threshold (CYP-induced allodynia) vs vehicle ([1]; +4 h after CYP) | reduction in plasma LDH release/levels ([2]; 180 mg/kg i.p., vs DOX vehicle) |
| --- | --- | --- | --- | --- | --- | --- | --- | --- | --- | --- | --- | --- | --- | --- | --- | --- | --- | --- |
| NC(=O)c1ccc[n+]([C@@H]2O[C@H](COP(=O)([O-])OP(=O)([O-])OC[C@H]3O[C@H]([n+]4cccc(C(N)=O)c4)[C@H](O)[C@@H]3O)[C@@H](O)[C@H]2O)c1 [Compound I-B] | significant decrease | significant decrease | significant decrease | significant increase | 98 % of survival | 60.0±0.6 | around 38% | 470.1±18.8 | non-significant increases | significantly decreased | reduced | tended to increase heart weight | 32 | less than 15% | – | – | – | – |
| NC(=O)c1ccc[n+]([C@H]2O[C@H](COP(=O)([O-])OP(=O)([O-])OC[C@H]3O[C@H]([n+]4cccc(C(N)=O)c4)[C@H](O)[C@@H]3O)[C@@H](O)[C@H]2O)c1 [Compound I-C] | significant decrease | significant decrease | significant decrease | significant increase | 100 % of survival | 58.2±0.5 | around 38% | – | non-significant increases | significantly decreased | reduced | tended to increase heart weight | 31 | 20% | increased heart rates | – | – | – |
| NC(=O)c1ccc[n+]([C@@H]2O[C@H](COP(=O)([O-])O)[C@@H](O)[C@H]2O)c1 [NMN, Nicotinamide Mononucleotide, reference compound] | significant decrease | significant decrease | – | – | 78 % of survival | 56.9±0.6 | around 38% | – | non-significant increases | significantly decreased | reduced | – | 40 | less than 10% | increased heart rates | slight increase | slight increase | more than 35% |
| NC(=O)c1ccc[n+]([C@H]2O[C@H](COP(=O)([O-])O)[C@@H](O)[C@H]2O)c1 [Pro-Drug A, alpha-NMN, reference compound] | decrease | achieved the statistical level | – | – | – | – | – | – | – | – | – | – | – | – | – | non-significant increase | significant increase | – |
